Measurements published in patent US20260232774A1, “COMPOSITIONS AND METHODS FOR TREATING INTESTINAL MICROBIOME DYSBIOSIS” (The Regents of the University of Michigan, priority 2023, published 2026).

Tested on: GVHD in GF B6 BMT recipients
Conditions: mouse, in vivo
From the text: (A) The details of the experimental design were shown in FIG. 12G to L. Quantification of iron in stool from colon and ileum in Allo B6 and Allo B6 deferasirox at 7 day and 21 day after BMT were shown (Day7, N=2, Day21, Vehicle: N=4, Deferasirox: N=2). (B) The percent of IFNγ+CD4, IFNγ+CD8, and Treg cells in spleen from recipients at day7 after BMT were shown (N=4). (C) The cytokine levels of IFNγ, TNFα, and IL17A in serum from recipients at day7 after BMT were shown (Vehicle: N=3, Deferasirox: N=4). (D to F) GF mice received BMT from BALB/c donor mice. BMT recipients were orally treated with deferasirox (20 mg/kg) and vehicle every day. (D) Hypoxyprobe staining and relative fluorescent intensity in colon from recipients 21 days after BMT (scale bar=50 μm). Three independent experiments were performed. Survival rate (E) and clinical GVHD score (F) of BMT recipients (Syn GF vehicle: N=2, Syn GF deferasirox: N=2, Allo GF vehicle: N=8, Allo GF deferasirox: N=10). The horizontal line in box (C) represents the median with the box bounding the interquartile range. The ends of the whisker lines represent the minimum and maximum values. […]
Because alteration of O2 affects host IECs in addition to the microbiome, we next determined whether restoring intestinal hypoxia by Fe chelation after allo-HSCT mitigated GVHD independent of its impact on dysbiosis. […]

O=C(O)c1ccc(-n2nc(-c3ccccc3O)nc2-c2ccccc2O)cc1 [deferasirox]
survival and GVHD of syngeneic GF mice: survived without GVHD
